Experimental data published in ChEMBL document CHEMBL1255174, “Synthesis and biological evaluation of a novel series of bis-salicylaldehydes as mushroom tyrosinase inhibitors” (Bioorg Med Chem Lett, 2010).

These compounds were tested against T1, Tyrosinase (Agaricus bisporus, UniProt O42713) (assay: Inhibition of mushroom tyrosinase by Lineweaver-Burke double reciprocal plot analysis).
T1 sequence (O42713 whole entry): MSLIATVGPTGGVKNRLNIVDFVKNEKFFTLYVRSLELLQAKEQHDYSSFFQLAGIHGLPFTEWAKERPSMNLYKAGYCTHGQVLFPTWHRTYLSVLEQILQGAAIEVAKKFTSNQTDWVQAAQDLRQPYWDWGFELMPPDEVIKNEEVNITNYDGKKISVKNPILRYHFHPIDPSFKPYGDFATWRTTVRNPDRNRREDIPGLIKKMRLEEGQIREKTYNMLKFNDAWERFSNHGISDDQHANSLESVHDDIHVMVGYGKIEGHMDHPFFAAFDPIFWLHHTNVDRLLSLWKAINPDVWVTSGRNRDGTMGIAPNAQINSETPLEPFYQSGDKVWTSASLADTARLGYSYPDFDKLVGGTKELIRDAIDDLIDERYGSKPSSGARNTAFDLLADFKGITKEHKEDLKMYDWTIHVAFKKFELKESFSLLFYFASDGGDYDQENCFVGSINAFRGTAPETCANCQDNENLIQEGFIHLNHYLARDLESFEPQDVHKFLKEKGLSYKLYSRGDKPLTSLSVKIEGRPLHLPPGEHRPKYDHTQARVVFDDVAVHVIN

SMILES	Ki [µM]
O=Cc1cc(Cc2ccc(O)c(C=O)c2)ccc1O	48

What follows are compounds tested against T1, Tyrosinase.
Description: Inhibition of mushroom tyrosinase after 10 mins by L-DOPA oxidation assay

SMILES	IC50 [µM]
O=Cc1cc(Cc2ccc(O)c(C=O)c2)ccc1O	74
COc1cc(Cc2cc(C=O)c(O)c(OC)c2)cc(C=O)c1O	695
COc1cc(O)c(C=O)cc1Cc1cc(C=O)c(O)cc1OC	117
O=Cc1cc(Cc2cc(O)c(O)c(C=O)c2)cc(O)c1O	523
O=Cc1cc(Cc2cc(C=O)c(O)cc2O)c(O)cc1O	76
